# Read-outs that look alike come from different tables or passages of the source.
# Legend:
# rabbit aorta = assay: Relaxing effect on isolated rabbit aorta contracted (depolarized) by KCl; settings: Oryctolagus cuniculus, read-out: ED50 (dose causing a 50% relaxation of the precontracted arteries)
# Method: I. RELAXING EFFECT ON ISOLATED RABBIT AORTA CONTRACTED BY KCl
# The thoracic aortae of male rabbits are removed, cut into narrow strips and placed under tension in an oxygenated survival medium. The contractions of these arteries, the amplitude of which is measured using a myograph, are induced by a 127 mM solution of KCl [R. Towart et al., Arzneim.-Forsch./Drug Res. 32, 338-346 (1982)]. The compounds studied are dissolved in a mixture of anhydrous ethanol and double distilled water (1:1) v/v, the percentage of ethanol in the baths being less than or equal to 0.3% at the end of the experiment. When the contraction plateau is reached, the compound is added to the medium in increasing doses every 15 minutes.
# in vivo = settings: rat, intravenous, male Wistar rats weighing 300 g
# Method: The LD50 was determined by intravenous administration to male Wistar rats weighing 300 g.
# [1] = test system: spontaneously hypertensive rats; assay: Antihypertensive activity in spontaneously hypertensive rats, oral administration; format: in vivo; settings: for change in vivo at 30 mg/kg / change in vivo at 10 mg/kg: Rattus norvegicus
# Method: Spontaneously hypertensive rats aged between 16 and 20 weeks are used. The systolic pressure is measured by plethysmography and the heart rate is obtained from the pressure graph. The compounds studied are administered orally.
# [2] = test system: spontaneously hypertensive rats; assay: Antihypertensive activity in spontaneously hypertensive rats, intravenous administration; format: in vivo; settings: single i.v. dose; Ex. 2 30, Ex. 7 100, Ex. 8 300, Ex. 11 30 and 100 μg/kg; versus nicardipine and nifedipine
# Description: 2. Intravenous administration
# Spontaneously hypertensive rats aged between 16 and 20 weeks are used. They are anesthetized with diethyl ether, a cannula is inserted into the caudal artery to measure the arterial pressure and a catheter is inserted into the right jugular vein to administer the compounds as described previously (L. S. Watson and L. T. Ludden, New Antihypertensive Drugs, pages 87-96, Spectrum Publication, Inc., 1976).
# Each curve C relates to the control group receiving only the vehicle and each curve T relates to the treated group [n (number of animals per group)=4-7]. The said groups are compared either by analysis of variance, if the variances are homogenous (Bartlett's homocedasticity test), or by Kruskall-Wallis's non-parametric test (the statistically significant results being represented as follows:
# FIGS. 1-6 relate to the variation in systolic pressure, expressed in mm Hg (1 mm Hg corresponds approximately to 1.333×10^2 Pa), as a function of time, expressed in minutes, and FIGS. 1a-6a relate to the variation in diastolic pressure, also expressed in mm Hg, as a function of time, expressed in minutes, for the treated groups (curves T) compared with the corresponding control groups (curves C), the doses of products administered being as follows:
# FIGS. 2 and 2a: nicardipine at 30 μg/kg i.v.,
# FIGS. 3 and 3a: Example 2 at 30 μg/kg i.v.,
# FIGS. 4 and 4a: Example 7 at 100 μg/kg i.v.,
# FIGS. 5 and 5a: Example 8 at 300 μg/kg i.v., and
# FIGS. 6 and 6a: Example 11 at 30 and 100 μg/kg i.v. (curves T1 and T2).
# anesthetized dogs = assay: Hemodynamic effects on anesthetized dogs, intraduodenal administration; format: in vivo, Mongrel dogs; settings: for % variation T.P.R. (total peripheral resistances) / duration of the effect, T.P.R. (total peripheral resistances): calculated
# Method: III. HEMODYNAMIC EFFECTS ON ANESTHETIZED DOGS Mongrel dogs are anesthetized with pentobarbital sodium (25 mg/kg i.v.). Each animal is placed under artificial respiration and a catheter is introduced into the aorta to measure the arterial pressure. The outputs of the aorta (O. Aor.), right femoral artery (O. Fem.) and left coronary artery (descending part) (O. Cor.) are measured continuously by means of electromagnetic rings. The total peripheral resistances (T.P.R.) are also calculated. […]
# [3] = rabbit aorta depolarized by 127 mM KCl
# [4] = 30 mg/kg, read-out: % variation Heart rate
# [5] = 30 mg/kg, read-out: % variation Systolic pressure
# [6] = 0.5 mg/kg, versus nicardipine and nifedipine
EC50 (rabbit aorta; [3]),Structure (SMILES),LD50 (in vivo),"change in vivo at 30 mg/kg [1, 4]","change in vivo at 30 mg/kg [1, 5]","duration of the effect, Systolic pressure ([1]; 30 mg/kg)",also measured
43 nM,COC(=O)C1=C(C)NC(C)=C(C(=O)OCC2COCO2)C1c1cccc([N+](=O)[O-])c1 (racemic) [Example 3],,,,,
32 nM,"COC(=O)C1=C(C)NC(C)=C(C(=O)OCCC2COC(C)(C)O2)C1c1cccc([N+](=O)[O-])c1 (racemic) [Example 4, methyl 2-[(2,2-dimethyl-1,3-dioxolan-4-yl)ethyl]1,4-dihydro-2,6-dimethyl-4-(3-nitrophenyl)pyridine-3,5-dicarboxylate]",,,,,
,COC(=O)C1=C(C)NC(C)=C(C(=O)OCC2COC(C)(c3ccccc3)O2)C1c1cccc([N+](=O)[O-])c1 (racemic) [Example 7],17.8 mg/kg,36.4%,-40.5 ± 5.1%,> 24 h,duration of the antihypertensive effect (in words) [2]: notably longer than that of nicardipine and nifedipine
250 nM,"COC(=O)C1=C(C)NC(C)=C(C(=O)OCC2(C)OCCO2)C1c1cccc([N+](=O)[O-])c1 (centres unmarked) [CP 1, methyl 2,2ethylenedioxypropyl 2,6dimethyl-4-(3-nitrophenyl)-1,4-dihydropyridine-3,5-dicarboxylate, reference compound]",,0%,-11.6 ± 6%,0 h,
,"COC(=O)C1=C(C)NC(C)=C(C(=O)OCC2COC3(CCCC3)O2)C1c1cccc([N+](=O)[O-])c1 (centres unmarked) [Example 5, methyl (1,4-dioxaspiro[4,4]nonan-2-yl)methyl 1,4-dihydro-2,6-dimethyl-4-(3-nitrophenyl)pyridine-3,5-dicarboxylate]",,19.3%,-40.4 ± 9.4%,,"duration of the effect, Heart rate ([1]; 30 mg/kg): 4 h"
5000 nM,COC(=O)C1=C(C)NC(C)=C(C(=O)OCC2COC(c3ccccc3)(C(F)(F)F)O2)C1c1cccc([N+](=O)[O-])c1 (centres unmarked) [Example 12],,,,,"duration of the effect, Systolic pressure ([1]; 10 mg/kg): > 24 h; change in vivo at 10 mg/kg ([1]; 10 mg/kg, read-out: % variation Heart rate): 31.2%; change in vivo at 10 mg/kg ([1]; 10 mg/kg, read-out: % variation Systolic pressure): -41.4 ± 10%"
> 5000 nM,COC(=O)C1=C(C)NC(C)=C(C(=O)OCC2COC(C(F)(F)F)(C(F)(F)F)O2)C1c1cccc([N+](=O)[O-])c1 (centres unmarked) [Example 13],,25%,,> 24 h,
> 5000 nM,COC(=O)C1=C(C)NC(C)=C(C(=O)OCC2COC(c3ccccc3)O2)C1c1cccc([N+](=O)[O-])c1 (centres unmarked) [Example 14],,19.9%,-58.4 ± 32.9%,> 24 h,"duration of the effect, Heart rate ([1]; 30 mg/kg): > 24 h"
,"COC(=O)C1=C(C)NC(C)=C(C(=O)OC)C1c1ccccc1[N+](=O)[O-] [nifedipine, dimethyl 1,4-dihydro-2,6-dimethyl-4-(2-nitrophenyl)pyridine-3,5-dicarboxylate, reference compound]",,35.4%,-35.2 ± 4.7%,,"% variation D.P. (diastolic pressure) (anesthetized dogs; 0.35 mg/kg): -44.2%; % variation O. Aor. (output of the aorta) (anesthetized dogs; 0.35 mg/kg): +20.5%; % variation O. Cor. (output of left coronary artery) (anesthetized dogs; 0.35 mg/kg): +66.4%; % variation O. Fem. (output of right femoral artery) (anesthetized dogs; 0.35 mg/kg): +76.4%; duration of the effect, D.P. (diastolic pressure) (anesthetized dogs; 0.35 mg/kg): 240 min; duration of the effect, O. Fem. (output of right femoral artery) (anesthetized dogs; 0.35 mg/kg): 10 min; % variation T.P.R. (total peripheral resistances) (anesthetized dogs; 0.35 mg/kg): -48.6%; duration of the effect, T.P.R. (total peripheral resistances) (anesthetized dogs; 0.35 mg/kg): 180 min; EC50 (rabbit aorta): 22 nM"

Structure (SMILES),EC50 (rabbit aorta; [3]),LD50 (in vivo),"change in vivo at 30 mg/kg [1, 4]","change in vivo at 30 mg/kg [1, 5]","duration of the effect, Systolic pressure ([1]; 30 mg/kg)",also measured
COC(=O)C1=C(C)NC(C)=C(C(=O)OCC2CSC(C)(C)O2)C1c1cccc([N+](=O)[O-])c1 (racemic) [Example 6],35 nM,34.2 mg/kg,21.4%,-35.1 ± 9.2%,,
COC(=O)C1=C(C)NC(C)=C(C(=O)OCC2COC(c3ccccc3)(c3ccccc3)O2)C1c1cccc([N+](=O)[O-])c1 (racemic) [Example 8],> 5000 nM,44.4 mg/kg,12.4%,-37 ± 9%,> 24 h,duration of the antihypertensive effect (in words) [2]: notably longer than that of nicardipine and nifedipine
COC(=O)C1=C(C)NC(C)=C(C(=O)OCC2COC(C)(c3ccc(Cl)cc3Cl)O2)C1c1cccc([N+](=O)[O-])c1 (racemic) [Example 11],> 5000 nM,38.9 mg/kg,34%,-54 ± 5.9%,> 24 h,duration of the antihypertensive effect (in words) [2]: notably longer than that of nicardipine and nifedipine
"COC(=O)C1=C(C)NC(C)=C(C(=O)OCC2COC(C)(C)O2)C1c1cccc([N+](=O)[O-])c1 (centres unmarked) [Example 1, methyl (2,2-dimethyl-1,3-dioxolan-4-yl)methyl 1,4-dihydro-2,6-dimethyl-4-(3-nitrophenyl)pyridine-3,5-dicarboxylate]",31 nM,22.5 mg/kg,16.4%,-28.4 ± 7.3%,,"% variation D.P. (diastolic pressure) (anesthetized dogs; 0.5 mg/kg): -42.6%; % variation O. Aor. (output of the aorta) (anesthetized dogs; 0.5 mg/kg): +124%; % variation O. Cor. (output of left coronary artery) (anesthetized dogs; 0.5 mg/kg): +73.6%; % variation O. Fem. (output of right femoral artery) (anesthetized dogs; 0.5 mg/kg): +114%; duration of the effect, D.P. (diastolic pressure) (anesthetized dogs; 0.5 mg/kg): 120 min; duration of the effect, O. Aor. (output of the aorta) (anesthetized dogs; 0.5 mg/kg): 120 min; duration of the effect, O. Fem. (output of right femoral artery) (anesthetized dogs; 0.5 mg/kg): 270 min; % variation T.P.R. (total peripheral resistances) (anesthetized dogs; 0.5 mg/kg): -65%; duration of the effect, T.P.R. (total peripheral resistances) (anesthetized dogs; 0.5 mg/kg): 300 min; cardiac, femoral and coronary outputs (in words) (anesthetized dogs; [6]): increased for a longer time and to a greater extent; drop in total peripheral resistances (in words) (anesthetized dogs; [6]): greater drop in total peripheral resistances than nicardipine and nifedipine; duration of drop in total peripheral resistances (in words) (anesthetized dogs; [6]): considerably longer"
"COC(=O)C1=C(C)NC(C)=C(C(=O)OCCN(C)Cc2ccccc2)C1c1cccc([N+](=O)[O-])c1 (centres unmarked) [nicardipine, methyl 2-(N-methyl-N-benzylamino)ethyl 1,4-dihydro-2,6-dimethyl-4-(3-nitrophenyl)pyridine-3,5-dicarboxylate, reference compound]",26 nM,11.8 mg/kg,21.3%,-46.2 ± 6.8%,,"% variation D.P. (diastolic pressure) (anesthetized dogs; 0.5 mg/kg): -34.5%; % variation O. Aor. (output of the aorta) (anesthetized dogs; 0.5 mg/kg): +25%; % variation O. Cor. (output of left coronary artery) (anesthetized dogs; 0.5 mg/kg): +62.2%; % variation O. Fem. (output of right femoral artery) (anesthetized dogs; 0.5 mg/kg): +70.6%; duration of the effect, D.P. (diastolic pressure) (anesthetized dogs; 0.5 mg/kg): 150 min; % variation T.P.R. (total peripheral resistances) (anesthetized dogs; 0.5 mg/kg): -40.5%; duration of the effect, T.P.R. (total peripheral resistances) (anesthetized dogs; 0.5 mg/kg): 90 min"
